Reference: patent US10851098B2, “Azole amides and amines as alpha v integrin inhibitors” (BRISTOL-MYERS SQUIBB COMPANY, priority 2016, dated 2020)

Target: T1, human αVβ6 (Homo sapiens, UniProt P06756+P18564)
T1 construct: purchased R & D systems 3817-AV
Assay: human αVβ6 HTRF binding assay
Procedure: All binding assays used the HTRF (homogeneous time resolved fluorescence) technology from Cisbio International, therefore all assays are described as HTRF binding assays. The assay results for the Examples are listed above together with the characterization data. The HTRF binding assays are established for the following integrins: human αVβ6, human αVβ1, human αVβ3, human αVβ5, and human αVβ8. All assays used the following assay buffer: 20 mM Tris, pH 7.4, 1 mM MgCl2, 1 mM MnCl2, 0.01% Tween 20, and 0.01% BSA. Alternatively, a SPA-based assay was used for evaluation of receptor binding.
[…]

T1 sequence (P06756 31-992 limits assumed): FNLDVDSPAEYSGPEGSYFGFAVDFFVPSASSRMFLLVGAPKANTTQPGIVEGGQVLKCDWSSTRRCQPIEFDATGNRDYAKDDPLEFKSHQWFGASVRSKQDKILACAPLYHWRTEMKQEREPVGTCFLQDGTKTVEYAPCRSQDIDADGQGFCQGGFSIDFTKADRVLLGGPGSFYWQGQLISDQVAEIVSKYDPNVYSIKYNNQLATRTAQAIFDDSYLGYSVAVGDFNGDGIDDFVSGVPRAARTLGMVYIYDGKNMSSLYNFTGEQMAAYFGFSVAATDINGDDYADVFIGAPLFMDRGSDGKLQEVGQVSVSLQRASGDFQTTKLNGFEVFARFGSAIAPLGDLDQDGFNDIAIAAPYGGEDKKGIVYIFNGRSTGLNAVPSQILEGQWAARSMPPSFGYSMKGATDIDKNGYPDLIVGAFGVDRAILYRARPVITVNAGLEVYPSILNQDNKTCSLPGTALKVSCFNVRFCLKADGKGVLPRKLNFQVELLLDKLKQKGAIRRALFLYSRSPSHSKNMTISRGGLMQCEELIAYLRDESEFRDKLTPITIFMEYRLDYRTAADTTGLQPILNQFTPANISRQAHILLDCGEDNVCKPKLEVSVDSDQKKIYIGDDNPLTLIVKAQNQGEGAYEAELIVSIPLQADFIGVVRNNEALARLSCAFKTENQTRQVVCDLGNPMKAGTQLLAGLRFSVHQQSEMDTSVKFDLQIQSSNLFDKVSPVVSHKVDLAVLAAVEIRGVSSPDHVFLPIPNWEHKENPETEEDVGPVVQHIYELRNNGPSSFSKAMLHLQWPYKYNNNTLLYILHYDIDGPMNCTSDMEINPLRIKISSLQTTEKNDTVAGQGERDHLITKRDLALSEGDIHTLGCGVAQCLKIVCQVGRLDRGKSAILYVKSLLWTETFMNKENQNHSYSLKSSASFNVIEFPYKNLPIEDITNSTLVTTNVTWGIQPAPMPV
T1 sequence (P18564 22-707 limits assumed): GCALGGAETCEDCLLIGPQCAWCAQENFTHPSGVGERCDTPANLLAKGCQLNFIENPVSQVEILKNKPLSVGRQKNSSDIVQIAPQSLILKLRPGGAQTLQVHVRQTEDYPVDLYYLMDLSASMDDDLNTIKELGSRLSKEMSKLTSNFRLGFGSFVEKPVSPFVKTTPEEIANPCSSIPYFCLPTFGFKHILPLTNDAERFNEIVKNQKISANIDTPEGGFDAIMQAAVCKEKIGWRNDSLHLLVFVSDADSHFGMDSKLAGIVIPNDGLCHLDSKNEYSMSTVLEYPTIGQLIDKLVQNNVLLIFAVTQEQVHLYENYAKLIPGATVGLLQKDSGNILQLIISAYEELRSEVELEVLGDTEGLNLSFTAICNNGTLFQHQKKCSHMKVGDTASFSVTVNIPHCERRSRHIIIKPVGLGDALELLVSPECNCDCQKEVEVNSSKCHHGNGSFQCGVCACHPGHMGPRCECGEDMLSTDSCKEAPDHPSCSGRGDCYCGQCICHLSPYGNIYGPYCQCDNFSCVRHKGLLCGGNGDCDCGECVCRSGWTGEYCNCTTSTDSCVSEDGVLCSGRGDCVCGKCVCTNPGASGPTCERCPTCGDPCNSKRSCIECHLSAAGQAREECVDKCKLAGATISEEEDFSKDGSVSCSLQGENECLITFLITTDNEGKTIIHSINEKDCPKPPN

| IC50 [nM] | SMILES |
| --- | --- |
| 272 | O=C(O)CCNCc1cnn(CCc2ccc3c(n2)NCCC3)c1 [Example 175, 3-(((1-(2-(5,6,7,8-Tetrahydro-1,8-naphthyridin-2-yl)ethyl)-1H-pyrazol-4-yl)methyl)amino)propanoic acid] |
| 178 | O=C(O)CC(NC(=O)c1cn(CCCc2ccc3c(n2)NCCC3)nc1CO)c1cc(Cl)cc(Cl)c1 (centres unmarked) [Example 6, 3-(3,5-Dichlorophenyl)-3-(3-(hydroxymethyl)-1-(3-(5,6,7,8-tetrahydro-1,8-naphthyridin-2-yl)propyl)-1H-pyrazole-4-carboxamido)propanoic acid] |
| 3810 | CCN(C(=O)c1cnn(CCc2ccc3c(n2)NCCC3)c1)C(CC(C)=O)c1cc(Cl)cc(Cl)c1 (centres unmarked) [Example 104] |
| 10 | CC(C)(C)OCc1c(C(=O)NC(CC(=O)O)c2cccc(-n3cccc3)c2)cnn1CCc1ccc2c(n1)NCCC2 (centres unmarked) [Example 34] |
| 14 | CC(C)(C)OCc1c(C(=O)NC(CC(=O)O)c2cc(Cl)cc(Cl)c2)cnn1CCc1ccc2c(n1)NCCC2 (centres unmarked) [Example 41] |
| 0.4 | CCCCC(CC)COC(=O)N[C@@H](CNC(=O)c1cnn(CCc2ccc3c(n2)NCCC3)c1)C(=O)O (some centres unmarked) [Example 152] |
| 8.2 | O=C(NC[C@H](NS(=O)(=O)Cc1cccc(F)c1)C(=O)O)c1cnn(CCc2ccc3c(n2)NCCC3)c1 [Example 142] |
| 399 | CC(C)CC(CC(=O)O)NC(=O)c1cnn(CCc2ccc3c(n2)NCCC3)c1 (centres unmarked) [Example 89] |

More lines, now with the values behind:

| SMILES | IC50 [nM] |
| --- | --- |
| COc1ccc([C@H](CC(=O)O)NC(=O)c2cnn(CCc3ccc4c(n3)NCCC4)c2CO)cn1 [Example 43] | 16 |
| CC(C)(C)OCc1nn(CCc2ccc3c(n2)NCCC3)cc1C(=O)NC(CC(=O)O)c1ccc(C(F)(F)F)cc1 (centres unmarked) [Example 95] | 1050 |
| O=C(O)CC(NC(=O)c1cnn(CCc2ccc3c(n2)NCCC3)c1CO)c1ccc(C(F)(F)F)cc1 (centres unmarked) [Example 62] | 49 |
| COc1ccc(C(CC(=O)O)NC(=O)c2cnn(CCc3ccc4c(n3)NCCC4)c2CO)cc1OC (centres unmarked) [Example 76] | 131 |
| O=C(NC[C@H](NS(=O)(=O)Cc1ccc(OC(F)(F)F)cc1)C(=O)O)c1cnn(CCc2ccc3c(n2)NCCC3)c1 [Example 146] | 8.6 |
| Cc1cc(C)c(S(=O)(=O)N[C@@H](CNC(=O)c2cnn(Cc3cc4c(nc3C)NCCC4)n2)C(=O)O)c(C)c1 [Example 118] | 223 |
| O=C(NC[C@H](NS(=O)(=O)Cc1ccccc1)C(=O)O)c1cnn(CCc2ccc3c(n2)NCCC3)c1 [Example 125] | 14 |
| O=C(NC[C@H](NS(=O)(=O)Cc1ccc(F)cc1)C(=O)O)c1cnn(CCc2ccc3c(n2)NCCC3)c1 [Example 168] | 17 |
| Cc1ccc(C(CC(=O)O)NC(=O)c2cnn(CCc3ccc4c(n3)NCCC4)c2CO)cc1 (centres unmarked) [Example 66] | 91 |
| O=C(NC[C@H](NS(=O)(=O)Cc1cc(Cl)cc(Cl)c1)C(=O)O)c1cnn(CCc2ccc3c(n2)NCCC3)c1 [Example 140] | 6.2 |
| CCCCS(=O)(=O)N[C@@H](CNC(=O)c1cnn(CCc2ccc3c(n2)NCCC3)c1)C(=O)O [Example 124] | 2.6 |
| O=C(O)CC(NC(=O)c1cnn(CCc2ccc3c(n2)NCCC3)c1CO)c1cccc(C(F)(F)F)c1 (centres unmarked) [Example 44] | 16 |
| O=C(O)CC1(NC(=O)c2cnn(CCc3ccc4c(n3)NCCC4)c2)Cc2ccccc2C1 [Example 109] | 6440 |
| COCCOC(=O)N[C@@H](CNC(=O)c1cnn(CCc2ccc3c(n2)NCCC3)c1)C(=O)O [Example 149] | 4.7 |
| Cc1nn(CCc2ccc3c(n2)NCCC3)c(C)c1C(=O)NC(CC(=O)O)c1ccc(Cl)c(Cl)c1 (centres unmarked) [Example 57] | 40 |
| CCCOC(=O)N[C@@H](CNC(=O)c1cnn(CCc2ccc3c(n2)NCCC3)c1)C(=O)O [Example 127] | 1.5 |
| O=C(O)CC(CCc1ccccc1)NC(=O)c1cnn(CCc2ccc3c(n2)NCCC3)c1 (centres unmarked) [Example 90] | 401 |
| CC(C)(C)OCc1nn(CCc2ccc3c(n2)NCCC3)cc1C(=O)NC(CC(=O)O)c1ccc(Cl)c(Cl)c1 (centres unmarked) [Example 84] | 284 |
